Columns and labels:
[1] = TDI-induced scratching bouts (itch); assay type: in vivo, mouse
Description: (§1) Several different model systems were utilized for these experiments. In one model, dorsal root ganglia were obtained from mice and the neurons cultured in vitro. The neurons were then stimulated in the presence/absence of A15 and YM8-85 and the calcium responses monitored by fluorescence microscopy. In the second model, the alkamides were applied to mouse skin in mineral oil. The reactions of these mice to heat, cold, and tactile stimulation was then compared with mice that had not received treatment with A15. In a third model, mice were sensitized to the chemical compound toluene-2,4-diisocyanate (TDI). TDI is an industrial chemical which causes hypersensitive skin lesions and itching in exposed humans and animals. The physiological response to TDI is complex involving type 2 T lymphocytes, cytokines, mast cells, and neurons. Alkamides were applied to sensitized animals and then ear swelling and bouts of scratching were monitored.
The effects of A15 on TDI-induced itch. The itch response was also monitored in mice sensitized and treated with TDI. Treated mice were video recorded and the number of scratching bouts quantified by an observer.

RBL-2H3 cells [2] = test: LDH cytotoxicity assay; assay type: cell-based, rat; conditions: overnight treatment
Description: FIG. 7. A15 is not cytotoxic to RBL-2H3 cells. RBL-2H3 cells were plated and incubated overnight prior to stimulation. Cells were treated overnight with the indicated concentrations of A15 10 μg/mL cycloheximide as a positive control. Supernatants were collected and analyzed for LDH release using the Pierce LDH Cytotoxicity Kit. […] Statistical analysis was performed using a one-way ANOVA with Dunnett's post-hoc test, ***p<0.001.
RBL-2H3 cells were seeded into 96-well plates and incubated overnight prior to treatment with a range of A15 concentrations or 10 μg/mL cycloheximide. Supernatants were collected after 18 hr and analyzed for lactate dehydrogenase (LDH) activity using the commercially available Pierce LDH Cytotoxicity Assay Kit according to the manufacturer's instructions (Thermo Fisher Scientific). Briefly, in a 96-well plate, 50 μL of supernatant were incubated with 50 μL of reaction mixture containing a tetrazolium salt that is reduced to formazan in the presence LDH for 30 min protected from light. 50 μL of stop solution was added, and the absorbance was read at 490 nm with absorbance at 690 nm subtracted to remove background absorbance. LDH release from vehicle treated cells was used to determine spontaneous LDH release. Additionally, lysis buffer was used to determine maximum LDH release.

TRPA1 = biological target: T1, TRPA1 (Mus musculus, UniProt Q8BLA8); test: Calcium response of DRG neurons to mustard (allyl isothiocyanate); assay type: cell-based; conditions: cultured DRG neurons, fluorescence microscopy
T1 construct: The receptors TRPA1 and TRPV1 are expressed on neurons; from tissue; host or cells: primary dorsal root ganglion neurons from mice
T1 sequence (Q8BLA8 whole entry): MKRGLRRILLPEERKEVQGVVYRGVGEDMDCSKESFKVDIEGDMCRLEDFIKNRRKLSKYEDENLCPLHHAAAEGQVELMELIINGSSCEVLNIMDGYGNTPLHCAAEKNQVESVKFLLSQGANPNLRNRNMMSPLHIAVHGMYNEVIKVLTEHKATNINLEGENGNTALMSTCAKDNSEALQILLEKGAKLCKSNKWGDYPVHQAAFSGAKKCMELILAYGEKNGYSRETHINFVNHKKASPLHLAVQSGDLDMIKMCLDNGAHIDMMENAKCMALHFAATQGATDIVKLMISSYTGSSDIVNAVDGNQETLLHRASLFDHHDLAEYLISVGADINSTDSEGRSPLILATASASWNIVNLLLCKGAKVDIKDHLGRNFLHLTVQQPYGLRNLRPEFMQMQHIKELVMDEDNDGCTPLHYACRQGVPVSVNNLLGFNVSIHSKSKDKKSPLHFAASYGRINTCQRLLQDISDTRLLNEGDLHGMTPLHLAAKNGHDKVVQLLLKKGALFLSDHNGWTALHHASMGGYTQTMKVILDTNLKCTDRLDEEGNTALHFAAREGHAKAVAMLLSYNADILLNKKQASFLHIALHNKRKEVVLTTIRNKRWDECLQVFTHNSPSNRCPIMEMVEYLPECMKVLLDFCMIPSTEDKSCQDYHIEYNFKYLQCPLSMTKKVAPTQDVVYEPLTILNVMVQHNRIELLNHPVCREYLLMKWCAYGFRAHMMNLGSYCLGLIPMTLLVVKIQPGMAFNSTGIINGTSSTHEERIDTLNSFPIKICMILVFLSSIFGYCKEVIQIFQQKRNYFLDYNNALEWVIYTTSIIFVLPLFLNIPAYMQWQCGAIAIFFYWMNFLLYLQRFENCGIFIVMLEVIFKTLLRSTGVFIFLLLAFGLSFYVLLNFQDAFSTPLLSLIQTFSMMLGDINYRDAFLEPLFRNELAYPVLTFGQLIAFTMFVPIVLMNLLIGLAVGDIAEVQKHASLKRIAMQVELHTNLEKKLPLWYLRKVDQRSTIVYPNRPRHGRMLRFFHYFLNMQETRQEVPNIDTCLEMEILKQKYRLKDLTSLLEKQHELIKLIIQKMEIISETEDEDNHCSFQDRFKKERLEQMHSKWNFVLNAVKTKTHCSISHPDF
Description: FIG. 11. Calcium response from DRG sensory neurons to alkamide of transient receptors. Mustard a TRPA1-receptor agonist activates DRG neurons in gray (A) and capsaicin, an agonist for TRPV1-receptors in the DRG neurons in red (B). Ligand A15 inhibits both TRPA1 and TRPV1 receptors activation in orange; however, 85Y a synthetic ligand only reduces the inhibition of TRPA1 but not TRPV1 receptors in blue. Total number of neurons (n)=135-145; p≤0.05.
as §1, with “In a third model, mice were sensitized to the chemical compound toluene-2,4-diisocyanate (TDI). TDI is an industrial chemical which causes hypersensitive skin lesions and itching in exposed humans and animals. The physiological response to TDI is complex involving type 2 T lymphocytes, cytokines, mast cells, and neurons.” left out
In vitro DRG neuron responses. […] Neurons were stimulated with mustard (allyl isothiocyanate) (A) an agonist for the receptor TRPA-1 or capsaicin (B) an agonist for the receptor TRPV-1 and calcium responses were measured in individual neurons by fluorescence microscopy. […]

RBL-2H3 cells [3] = test: PGE2 production, EIA, 8 hrs; assay type: cell-based, rat; conditions: 1 μM A23187, only at 100 μM
Description: FIGS. 6A-6B. A15 inhibits de novo production of TNF-α and PGE2 from RBL-2H3 cells. RBL-2H3 cells were plated and incubated overnight prior to stimulation. Cells were stimulated with 1 μM A23187 in combination with the indicated doses of A15. Supernatants were collected 8 hrs later and TNF-α (FIG. 6A) or PGE2 (FIG. 6B) levels were measured using ELISA kits. Data shown are the means±SEM from 3 independent experiments. Statistical analysis was performed using a one-way ANOVA with Dunnett's post-hoc test, *p<0.05, **p<0.01, ***p<0.001.
Bone marrow cells were isolated from the femurs of 6-8 week old C57BL/6 mice and cultured in RPMI-1640 containing 10% heat-inactivated FBS, non-essential amino acids, HEPES buffer, sodium pyruvate, 100 U/mL penicillin, 100 μg/mL streptomycin, 5 ng/mL mIL-3, and 5 ng/mL mSCF for 4-6 weeks until mature, bone marrow-derived mast cells (BMMCs) were obtained, as described previously (Kuehn et al., 2010). Differentiation into >98% mast cells was confirmed through toluidine blue staining (1%, pH 1). RBL-2H3, RAW 264.7, and Jurkat cells were obtained from the American Type Culture Collection (Manassas, Va.). […] Optical density was determined using a Synergy HT microplate reader (BioTek Instruments, Inc, Winooski, Vt.). […]

CCCCCCC/C=C/C=C/C(=O)NCC(C)C [A15, (2E,4E)-N-Isobutyldodeca-2,4-dienamide]
scratching bouts in TDI treated mice ([1]; higher dose 1.0%): strong significant inhibition of scratching | scratching bouts in TDI treated mice ([1]; lower dose 0.1%): strong significant inhibition of scratching | cytotoxic activity (LDH release) (RBL-2H3 cells [2]): no significant cytotoxic activity | DRG neuron calcium response to mustard (TRPA1 agonist) (TRPA1): inhibit | production of PGE2 (RBL-2H3 cells [3]): weakly inhibited

Source: patent US20200290950A1, “ALKAMIDE COMPOUNDS AND USES THEREOF” (NORTH CAROLINA STATE UNIVERSITY, priority 2017, published 2020)
